Data from patent US7906334B2, “Method for reproducing conifers by somatic embryogenesis using lactose as a carbon source” (Cellfor Inc., priority 2003, dated 2011).

What was measured:
[1] = test system: Loblolly pine megagametophytes containing immature zygotic embryos; assay: Effect of carbon source on induction of loblolly pine; format: cell-based, Pinus taeda (loblolly pine)
Experimental: Female gametophytes containing the immature zygotic embryos were used as explants. The cones were surface sterilized in 10% bleach solution for 15 min. They were rinsed 3 times with sterile water, air dried and stored in polyethylene bags at 4° C. until used. Seeds were sterilized in 3% hydrogen peroxide containing 0.1% Tween 20 and rinsed in sterile deionized water. Megagametophytes containing the immature embryos were plated on TX medium (Table A) supplemented with 2.2 mg/l 2,4-D, 1 mg/l BA and 0.3% Phytagel and containing either 1% sucrose, or 1.5% lactose and 0.025% glucose.
Cultures were maintained on the two media by subculturing the embryogenic tissue every 10 to 14 days to fresh media. All cultures were incubated at 23° C. in the dark.

[2] = test system: loblolly pine embryogenic tissue; assay: Effect of carbon source on solid maintenance of loblolly pine; format: cell-based, Pinus taeda (loblolly pine); conditions: semi-solid TX medium; 1% sucrose, or 1.5% lactose and 0.025% glucose
Experimental: Tissue induced on sucrose from Example 1 was further maintained on the semi-solid TX medium containing 1% sucrose, and tissue induced on lactose was maintained on semi-solid TX medium containing 1.5% lactose and 0.025% glucose. The tissue morphology of the lines induced on lactose was different from the ones induced on sucrose. […] In order to further increase the proliferation rate, 0.5% sucrose was added to the TX 1.5% lactose-containing medium in place of 0.025% glucose. This medium provided a reasonable bulk-up rate, and growth of embryos was more synchronized than in the 1% sucrose medium.

[3] = test system: Suspension cultures of loblolly lines LP1, LP2, LP3, LP4 and LP5; assay: Effect of carbon source on liquid maintenance: growth rate and yield of somatic embryos; format: cell-based, Pinus taeda (loblolly pine); conditions: 1% sucrose
Experimental: Suspension cultures of loblolly lines LP1, LP2, LP3, LP4 and LP5 were started with 2 g of tissue introduced to 50 ml of TX liquid medium containing different sugars—1% sucrose, 1.5% maltose, or 1.5% lactose. These cultures were maintained in the same liquid media for 2 weeks by weekly transfers to fresh maintenance medium containing the above sugars. Then, 2 g of tissue produced in each maintenance medium was transferred to prematuration media I, containing the same carbon source as the maintenance media. After one week, 1.5 g of tissue from each prematuration medium I was transferred to prematuration media II containing the same sugars. After the 4 week period in liquid media, early stage somatic embryos were collected and plated on ½ LV maturation medium containing 120 μM ABA and 6.0% sucrose and 1% Phytagel. Eight to ten weeks later, mature somatic embryos were counted and treatments were evaluated based on the number of somatic embryos per gram fresh weight (SE/g FW). Table 2 summarises the tissue yield at the end of the 4-week period and the number of mature somatic embryos produced for each line.

[4] = test system: loblolly pine lines LP2, LP3 and LP4; assay: Effect of lactose during the prematuration steps; format: cell-based, Pinus taeda (loblolly pine); conditions: 1% sucrose maintenance
Experimental: Prematuration for loblolly pine may be performed in two steps: • 1. Prematuration I requires reduction of hormones either by reducing the auxin and cytokinin concentrations to optimally about 1/20 of the concentration of proliferation step, or by adding charcoal at about 0.01 to 1%, or a combination of both. • 2. Prematuration II follows prematuration I and requires an addition of ABA at concentrations of about 5 to 120 μM, preferably 90 μM and no auxin and cytokinins.
In order to further understand the effect of lactose on somatic embryo development, liquid maintenance cultures were started in TX medium containing 1% sucrose as in Example 3. Three lines were used in this experiment, LP2, LP3 and LP4. After the proliferation step, 2 g of the tissue was transferred for one week to prematuration medium I containing different concentrations of lactose—1.5%, 3% and 6%. After that, 1.5 g of tissue produced in the lactose-containing media was further cultured for a week in prematuration medium II containing the same amount of lactose. 3.

[5] = test system: loblolly pine lines LP1 and LP3; assay: Effect of galactose and galactose-containing sugars during proliferation and prematuration on SE yield; format: cell-based, Pinus taeda (loblolly pine); design: Amount of tissue at the end of the preculture II stage: unit not given here; conditions: for # SE/g FW / Amount of tissue at the end of the preculture II stage: 1% sucrose, 1.5% maltose, 1.5% lactose or 0.75% galactose
Experimental: The finding that loblolly pine cultures were capable of utilising galactose is unique. In order to further investigate these phenomenon two lines, LP1 and LP3, were cultured on semi-solid TX medium containing 1.0% lactose and 0.5% sucrose. Cultures were maintained by subculturing the embryogenic tissue every 10 to 14 days to fresh media. All cultures were incubated at 23° C. in the dark. Suspension cultures were initiated as described in Example 3, however, TX medium was supplemented with either 1% sucrose, 1.5% maltose, 1.5% lactose, or 0.75% galactose. These cultures were maintained in liquid media for 4 weeks by weekly transfers to fresh maintenance or prematuration media. After the 4˜week period, 1 ml of the liquid medium containing 0.1 g of tissue consisting of early stage somatic embryos was plated on each […] plates containing ½ LV maturation medium. This medium contained 120 μM ABA and 6.0% sucrose and 1% Phytagel. Eight to ten weeks later, mature somatic embryos were counted and treatments were evaluated based on the number of somatic embryos per gram fresh weight (Table 5).

[6] = test system: Douglas fir embryogenic tissue, cell line DF-2; assay: Effects of carbohydrates on liquid maintenance of Douglas fir embryogenic tissue; format: cell-based, Pseudotsuga menziesii (Douglas fir); conditions: 3 weeks suspension maintenance/bulking-up, 0.5% galactose, 1% lactose, 0.5% mannitol
Experimental: The culture medium for Douglas fir was TX medium (see Table A) with the following additives: glutamine 100 mg., Casein hydrolysate 100 mg., and pH 5.8. The following compounds were added into the basal medium for Douglas fir somatic embryo development at different stages: • 1) Induction medium: 18 μM 2,4-D and 9 μM BA, phytagel 0.28%, sucrose 1% • 2) Solid maintenance medium: 9 μM 2,4-D and 4.5 μM BA, phytagel 0.28%, sucrose 1%. • 3) Liquid maintenance and bulking-up medium: 9 μM 2,4-D and 4.5 μM BA, different carbon sources for experiments. • 4) Liquid pre-treatment medium: 20 (first week) or 30 μM ABA (second week), 10% PEG4000 (first week) or PEG1500 (second week), different carbon sources as described in examples below. • 5) Solid maturation media: TX (Table A) plus 0.02% NH4NO3 • Medium I. 40 μM ABA, 10% PEG 1500, maltose 2.5%, phytagel 0.6% • Medium II. 60 μM ABA, 10% PEG1500, maltose 2.5% and sucrose 1%, phytagel 0.8% • Medium III. 70 μM ABA, 6% PEG1500, sucrose 6%, phytagel 1%.
Embryogenic tissue was induced from immature zygotic embryos. The cones and seeds were surface-sterilised as described for pines, and embryos were dissected out from megagametophytes. The embryos, with the attachment of suspensors to their megagametophytes, were placed on the surface of induction medium. The culture was kept in darkness at 23° C. Embryogenic tissue was sub-cultured once every two weeks onto solid maintenance medium.
Embryogenic tissue of Douglas fir was collected from solid maintenance culture and one gram of tissue was transferred into a 200 ml flask containing 50 ml TX (see Table A) liquid maintenance medium. The liquid maintenance medium was supplied with different sugars (Table 8).
The tissue was drained, weighed and sub-cultured once per week. During a culture period of three weeks, the highest tissue growth was found in the culture with glucose as the major carbon source. The media containing sucrose, maltose and galactose also supported a fast tissue growth. With these latter sugars, tissue increased to 68 to 100 fold in three weeks. Tissue grew little in the media containing lactose or mannitol. […] Similar results were obtained within two cell lines, DF-7A and DF-2.

[7] = test system: Douglas fir embryogenic tissue; assay: Medium osmolarity before and after one-week tissue inoculation; format: cell-based, Pseudotsuga menziesii (Douglas fir); conditions: medium with 0.5% galactose, 1% lactose, 0.5% mannitol or 0.5% glucose
Source text: More change of medium osmolarity occurred during week 2 than week 1. The medium osmolarity changed little when lactose or mannitol was used in the media.

[8] = then 1.5% lactose in prematuration I and II
[9] = then 3% lactose in prematuration I and II
[10] = then 6% lactose in prematuration I and II

`OC[C@H]1O[C@@H](O[C@H]2[C@H](O)[C@@H](O)C(O)O[C@@H]2CO)[C@H](O)[C@@H](O)[C@H]1O` (stereo partly drawn) [Lactose] was tested, and the “Induction success, lactose medium compared with sucrose medium” value [1] was “greater than three times higher”, the tissue morphology [2] was “more early-stage immature embryos and a limited amount of suspensor type of surrounding tissue” and the “# SE/g FW ± sd” value ([3]; 1.5% maltose or 1.5% lactose for 4 weeks in liquid, then 8-10 weeks on 1/2 LV maturation medium) was 393 ± 10 SE/g FW. The “Average amount of tissue produced after 4 weeks in liquid (FW g)” value ([3]; 1.5% maltose or 1.5% lactose in maintenance and prematuration I and II, started with 2 g) was 18.63 g, the “Mean # SE/g FW ± sd” value [4, 8] was 106 ± 9 SE/g FW and the “Mean grams FW at the end of prematuration stage” value (“Mean grams FW at the end” below) [4, 8] was 121.90 g. The “Mean # SE/g FW ± sd” value [4, 9] was 209 ± 7 SE/g FW, the “Mean grams FW at the end” value [4, 9] was 216.47 g and the “Mean # SE/g FW ± sd” value [4, 10] was 169 ± 10 SE/g FW. The “Mean grams FW at the end” value [4, 10] was 149.13 g, the embryos produced ([5]; line LP1, as stated in the text) was “over 1000 embryos” and the “# SE/g FW” value ([5]; line LP1) was 1060 ± 17 SE/g FW. For the same molecule, the “Amount of tissue at the end of the preculture II stage” value ([5]; line LP1) was 28.9, the “# SE/g FW” value ([5]; line LP3) was 110 ± 7 SE/g FW and the “Amount of tissue at the end of the preculture II stage” value ([5]; line LP3) was 8.78. The “Tissue growth (fold, mean ± SD)” value ([6]; additional glucose 0%, 0.5% glucose, 1% sucrose, 1% maltose) was 1.40 ± 0.14 fold, the “Tissue growth (fold, mean ± SD)” value ([6]; additional glucose 0.025%) was 2.75 ± 0.24 fold and the “Osmolarity before inoculation (mmol/kg, mean ± SD)” value [7] was 93.33 ± 0.58 mmol/kg.
